We go through 1 molecule from ChEMBL document CHEMBL1123796, “New antitumor agents containing the anthracene nucleus” (1987).

Type in all cases: functional
The subject of assay [1] is L1210. Description: Antileukemic activity against L-1210 cells in mice at a dose of 70 mg/kg administered intraperitoneally after 5 day treatment. Particulars: Mus musculus, L1210, ip, 120 h, route intraperitoneal.
In assay [2] the test system is L1210. Nature of the assay: Antileukemic activity against L-1210 cells in mice at a dose of 90 mg/kg administered intraperitoneally after 1 day treatment. Conditions: Mus musculus, L1210, ip, 24 h, route intraperitoneal.
Assay [3] deals with Mus musculus. Nature of the assay: Tested for high-dose toxicity in mice at a significant dose of 100 mg/kg administered intraperitoneally after 5 days of treatment. Particulars: route intraperitoneal.
The subject of assay [4] is Mus musculus. Nature of the assay: Tested for high-dose toxicity in mice at a significant dose of 60 mg/kg administered intraperitoneally after 5 days of treatment. Particulars: route intraperitoneal.
For assay [5], the system named is Mus musculus. Description: Tested for skin toxicity in BALB/c mice at a significant dose of 2.00 mg/kg administered intraintradermally and involved concentric circular areas of erythema.
Assay [6] concerns Mus musculus. Description: Tested for skin toxicity in BALB/c mice at a significant dose of 2.5 mg/kg administered intraintradermally and involved concentric circular areas of ulceration.
The test system of assay [7] is Mus musculus. Description: Tested for percent average weekly weight change in mice at a significant dose of 90 mg/kg administered intraperitoneally after 1 days of treatment. Particulars: route intraperitoneal.

`CN(C)CCNCc1c2ccccc2c(CNCCN(C)C)c2ccccc12` displayed an ILS at 70 mg/kg in the assay with L1210 [1] of 30%. The molecule further returned an ILS at 90 mg/kg with L1210 [2] of 3%. For the same molecule, the Lethality worked out at 80% in the assay with Mus musculus [3] and 0% with Mus musculus [4]. For the same molecule, the “Median day of death” value in the assay on Mus musculus [3] is 8. In addition, the “Extent of skin lesions” value in the assay on Mus musculus [5] stood at 3.1 cm**2; in the assay on Mus musculus [6] it was 3.8 cm**2. The “Average weekly weight change” value in the assay with Mus musculus [7] is given as -5%.
